The text below walks through data of PMC4245125, “Pharmacological and Behavioral Characterization of D-473, an Orally Active Triple Reuptake Inhibitor Targeting Dopamine, Serotonin and Norepinephrine Transporters” (PLoS ONE, 2014).

The structures appear in SMILES notation. Counter-ions that a name gives are not always drawn.

In one series the target is hSERT (Homo sapiens, UniProt P31645). The series is described as follows: Inhibition of [3H]5-HT uptake by cloned human SERT in HEK293 cells.
The conditions of series [1]: found earlier by the authors; no reference given; cited from earlier work.
The next series has as its target hNET (Homo sapiens, UniProt P23975). The series is described as follows: Inhibition of [3H]DA uptake by cloned human NET in HEK293 cells. To be noted: NET uptake, Ki, nM [3H]DA, HEK293 cells expressing hNET; average±S.E.M., 3 to 10 determinations.
A short description of series [2]: Plasma concentration after oral administration in rats. The note with it: rat, male Sprague-Dawley rats, 25 mg/kg PO. The format is in vivo. The protocol:
Sample preparation: Following oral administration of 25 mg/kg of D-473 and D-142 in male Sprague Dawley rats, the blood samples were collected at different time points over a period of 8 h for analysis. Concentrations of D-473 and D-142 in plasma were quantitated using a set of calibration standards prepared in blank matrix that were processed in parallel. Plasma concentration evaluation was carried out by the CRO, Absorption System, PA. Additionally, brain uptake studies of D-473 were carried out at three different time points (2, 4 and 6 h) following oral administration of 25 mg/kg D-473. Concentrations of D-473 in rat brain were quantitated using a set of calibration standards which were prepared in blank brain homogenate matrix on the day of analysis. The standard samples (5, 10, 25, 100, 500, 1000, and 2000 ng/mL) for calibration curve were prepared by spiking 45 µL of blank rat plasma with 5 µL of appropriate working dilution of D-473 in acetonitrile. The bioanalytical sample preparation for brain and plasma analysis followed by quantification of test compounds entailed the addition of 250 µL acetonitrile to every 50 µL of standard and analyte samples to precipitate tissue plasma proteins and tissue macromolecules. These mixtures were then vortexed for 15 min at 1400 rpm. The suspensions were then clarified by centrifugation (18000 g, 10 min at 4°C), and each 150 µL of the resulting supernatant was mixed well with 50 µL 0.1% formic acid in 50/50 (v/v) ACN/water solution for about 10 sec. The mixtures were again centrifuged (18000 g, 10 min at 4°C) before 100 µL of clear supernatant were transferred to auto sampler vials for LC-MS/MS analysis.
The analysis of blood sample was carried out by the CRO Absorption system, PA. Briefly, the analysis was carried out by Waters Acquity UPLC equipped with PE Sciex API4000 mass spectrometer. Reverse phase Waters Acquity BEH Phenyl Column 1.7micron, 2.1×30 mm column was used for analysis. 5 µL of sample solutions were injected with a flow rate 1 mL/min and the samples were eluted with gradient elution using solvent A (10% buffer: 90% water) and solvent B (10% buffer: 90% acetonitrile). Buffer used was 40 mM Ammonium Formate Buffer, pH 3.5. Pharmacokinetic prarameters were estimated by a non-compartmental model using WinNonlin v5.2.1 software.

The target in a further series is hDAT (Homo sapiens, UniProt Q01959). Kind of series: Inhibition of [3H]DA uptake by cloned human DAT in HEK293 cells. To be noted: nM, HEK293 cells expressing hDAT, average±S.E.M., 3 to 10 determinations.
Series [3] concerns locomotor activity (horizontal activity). Kind of series: Locomotor activity in rats. In kind it is in vivo. To be noted: rat; 5 mg/kg i.p.; vs vehicle (P<0.001). As for the experimental part: Sprague Dawley Rats were tested at 25 mg/kg oral dose of D-473 to monitor changes in any locomotor activity in acrylic Auto-Track/Opto-Varimex-4 System (Columbus Instrument; Columbus, Ohio). The purpose was to evaluate locomotor activity of the same doses of drug that were used in the forced swim test. Rats were acclimated in the test chambers for 1 h prior to oral administration of D-473. Locomotor activity of the drug was measured for a total of two hour post administration of the drug which corresponded to the time of measurement in the forced swimming experiment. GBR 12909 was studied as a control drug known to stimulate and was administered i.p. as in published studies; vehicle was orally administered.

The next series has as its system dialysate DOPAC. The arrangement: method as in PMID 2477259. The note with it: DAT releaser; cited from earlier work.

Chain of hSERT (P31645 whole entry): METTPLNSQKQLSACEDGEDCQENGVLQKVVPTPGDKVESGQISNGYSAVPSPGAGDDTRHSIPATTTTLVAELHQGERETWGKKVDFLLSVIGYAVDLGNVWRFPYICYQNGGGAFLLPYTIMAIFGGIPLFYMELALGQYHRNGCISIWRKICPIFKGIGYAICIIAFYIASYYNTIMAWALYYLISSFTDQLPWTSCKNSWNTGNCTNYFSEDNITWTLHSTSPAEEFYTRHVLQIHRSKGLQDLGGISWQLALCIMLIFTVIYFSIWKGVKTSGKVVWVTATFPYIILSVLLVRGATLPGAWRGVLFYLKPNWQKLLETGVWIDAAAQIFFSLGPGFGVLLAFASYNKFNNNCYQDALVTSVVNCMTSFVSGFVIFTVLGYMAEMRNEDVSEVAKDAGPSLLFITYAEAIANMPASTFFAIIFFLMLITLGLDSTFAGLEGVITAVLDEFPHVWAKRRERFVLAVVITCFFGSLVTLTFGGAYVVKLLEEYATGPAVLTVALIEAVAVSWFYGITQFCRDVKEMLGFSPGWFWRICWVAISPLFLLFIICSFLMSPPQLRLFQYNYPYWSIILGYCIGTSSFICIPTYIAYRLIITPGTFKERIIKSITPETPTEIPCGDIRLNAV
Chain of hDAT (Q01959 whole entry): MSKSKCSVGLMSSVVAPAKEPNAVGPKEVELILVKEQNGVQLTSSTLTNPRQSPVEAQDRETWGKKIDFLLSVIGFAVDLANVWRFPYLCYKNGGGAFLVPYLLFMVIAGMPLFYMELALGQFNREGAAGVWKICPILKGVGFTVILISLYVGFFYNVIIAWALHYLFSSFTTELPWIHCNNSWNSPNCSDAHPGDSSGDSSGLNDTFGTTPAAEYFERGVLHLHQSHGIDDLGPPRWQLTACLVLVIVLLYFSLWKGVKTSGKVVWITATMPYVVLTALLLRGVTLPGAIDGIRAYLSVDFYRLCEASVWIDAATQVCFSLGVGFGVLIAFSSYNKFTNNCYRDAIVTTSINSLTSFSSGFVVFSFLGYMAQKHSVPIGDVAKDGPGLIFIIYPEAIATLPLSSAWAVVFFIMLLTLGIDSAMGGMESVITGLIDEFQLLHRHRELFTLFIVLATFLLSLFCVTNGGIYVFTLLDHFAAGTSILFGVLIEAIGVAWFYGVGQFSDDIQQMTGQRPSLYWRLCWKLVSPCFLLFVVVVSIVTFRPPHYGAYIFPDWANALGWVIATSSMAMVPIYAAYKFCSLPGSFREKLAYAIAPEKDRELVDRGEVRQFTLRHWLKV
Chain of hNET (P23975 whole entry): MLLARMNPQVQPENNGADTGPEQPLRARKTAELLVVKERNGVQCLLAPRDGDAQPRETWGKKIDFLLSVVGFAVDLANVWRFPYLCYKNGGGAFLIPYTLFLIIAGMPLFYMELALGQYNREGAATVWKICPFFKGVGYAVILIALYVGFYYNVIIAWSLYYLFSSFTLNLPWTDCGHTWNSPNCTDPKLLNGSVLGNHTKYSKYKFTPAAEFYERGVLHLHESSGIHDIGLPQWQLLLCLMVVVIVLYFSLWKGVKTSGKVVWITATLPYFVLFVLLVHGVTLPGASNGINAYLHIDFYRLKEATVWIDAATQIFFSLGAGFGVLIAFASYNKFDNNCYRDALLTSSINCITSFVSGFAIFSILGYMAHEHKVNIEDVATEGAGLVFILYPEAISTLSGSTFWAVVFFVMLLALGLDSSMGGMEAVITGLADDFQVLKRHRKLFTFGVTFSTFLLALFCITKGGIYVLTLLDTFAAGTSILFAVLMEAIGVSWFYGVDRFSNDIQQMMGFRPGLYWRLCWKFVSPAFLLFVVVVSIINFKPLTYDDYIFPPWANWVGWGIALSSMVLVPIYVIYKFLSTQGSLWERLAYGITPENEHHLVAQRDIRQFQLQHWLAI

By melting point is commonly meant the temperature of the solid-liquid transition. Compound `COc1ccc(CN[C@@H]2CO[C@H](C(c3ccc(F)cc3)c3ccc(F)cc3)C[C@H]2O)cc1` (as salt: hydrochloride) [Compound D-473, (2S,4R,5R)-2-(bis(4-fluorophenyl)methyl)-5-((4-methoxybenzyl)amino)tetrahydro-2H-pyran-4-ol] yielded a melting point of 190 to 205 °C.
In general, Ki refers to a measure of affinity in units of concentration, obtained from inhibition or displacement. Low readings indicate a stronger hold on the target, high ones a looser hold on the target. The term half-life denotes how long it takes for the measured level to halve. Regarding `COc1ccc(CN[C@@H]2CO[C@H](C(c3ccccc3)c3ccccc3)C[C@H]2O)cc1` [Compound D-142], the Ki on hSERT worked out at 5.43 ± 1.4 nM; at hNET, 21.2 ± 4.3 nM; at hDAT, 179 ± 27 nM. The Oral bioavailability result in series [1] is given as “poor oral bioavailability”. Moreover, the Cmax in series [2] (3% HPßCD in water, read-out: Average maximum plasma concentration, Cmax) came to 125 ± 36.6 ng/mL. Besides, the half-life in series [2] (read-out: Average half-life (converted)) is 150 ± 57.6 min.
On to `Fc1ccc(C(OCCN2CCN(CCCc3ccccc3)CC2)c2ccc(F)cc2)cc1` [GBR 12909, 1-[2-[bis(4-fluorophenyl)methoxy]ethyl]-4-[3-phenylpropyl]piperazine, reference compound], for which the “Locomotor activity (horizontal activity)” value in series [3] is on record as “significant rise”.
Take `CC(N)Cc1ccccc1` (stereo not drawn) [amphetamine]: the “Reductions in DOPAC” value in the series on dialysate DOPAC is listed as around 65%.
